# Source: patent US20150045367A1, “CINNAMIC ACID HYDROXYAMIDES AS INHIBITORS OF HISTONE DEACETYLASE 8” (PHARMACYCLICS, INC., priority 2011, published 2015)
# Columns and labels:
# [1] = target: HDAC1 (Homo sapiens, UniProt Q13547); experiment: Histone deacetylase activity, continuous trypsin-coupled assay; type: biochemical; settings: trypsin-coupled fluorescence assay, acetyl-Gly-Ala-(N-acetyl-Lys)-AMC substrate
# Protocol: (§1) HDAC activity is measured using a continuous trypsin-coupled assay that has been described in detail previously (US 20070281934; Schultz et. al., Biochemistry, 43 (34), 11083-11091, 2004; Kim et al. (2006), Methods Mol. Biol., 325:273-283). For inhibitor characterization, measurements are performed in a reaction volume of 100 µL using 96-well assay plates in a fluorescence plate reader. For each isozyme, the HDAC protein in reaction buffer (50 mM HEPES, 100 mM KCl, 0.001% Tween-20, 5% DMSO, pH 7.4, supplemented with bovine serum albumin at concentrations of 0-0.05%, is mixed with inhibitor at various concentrations and allowed to incubate for 15 minutes. Trypsin is added to a final concentration of 50 nM, and acetyl-Gly-Ala-(N-acetyl-Lys)-AMC is added to a final concentration of 25-100 μM to initiate the reaction. After a 30 minute lag time, the fluorescence is measured over a 30 minute time frame using an excitation wavelength of 355 nm and a detection wavelength of 460 nm. The increase in fluorescence with time is used as the measure of the reaction rate. Inhibition constants Ki(app) were obtained using the program BatchKi (Biokin, Pullman, Wash.).
# [2] = target: T1, HDAC6 (Homo sapiens, UniProt Q9UBN7); experiment: as above; type: biochemical; settings: trypsin-coupled fluorescence assay, acetyl-Gly-Ala-(N-acetyl-Lys)-AMC substrate
# T1 sequence (Q9UBN7 1-1215): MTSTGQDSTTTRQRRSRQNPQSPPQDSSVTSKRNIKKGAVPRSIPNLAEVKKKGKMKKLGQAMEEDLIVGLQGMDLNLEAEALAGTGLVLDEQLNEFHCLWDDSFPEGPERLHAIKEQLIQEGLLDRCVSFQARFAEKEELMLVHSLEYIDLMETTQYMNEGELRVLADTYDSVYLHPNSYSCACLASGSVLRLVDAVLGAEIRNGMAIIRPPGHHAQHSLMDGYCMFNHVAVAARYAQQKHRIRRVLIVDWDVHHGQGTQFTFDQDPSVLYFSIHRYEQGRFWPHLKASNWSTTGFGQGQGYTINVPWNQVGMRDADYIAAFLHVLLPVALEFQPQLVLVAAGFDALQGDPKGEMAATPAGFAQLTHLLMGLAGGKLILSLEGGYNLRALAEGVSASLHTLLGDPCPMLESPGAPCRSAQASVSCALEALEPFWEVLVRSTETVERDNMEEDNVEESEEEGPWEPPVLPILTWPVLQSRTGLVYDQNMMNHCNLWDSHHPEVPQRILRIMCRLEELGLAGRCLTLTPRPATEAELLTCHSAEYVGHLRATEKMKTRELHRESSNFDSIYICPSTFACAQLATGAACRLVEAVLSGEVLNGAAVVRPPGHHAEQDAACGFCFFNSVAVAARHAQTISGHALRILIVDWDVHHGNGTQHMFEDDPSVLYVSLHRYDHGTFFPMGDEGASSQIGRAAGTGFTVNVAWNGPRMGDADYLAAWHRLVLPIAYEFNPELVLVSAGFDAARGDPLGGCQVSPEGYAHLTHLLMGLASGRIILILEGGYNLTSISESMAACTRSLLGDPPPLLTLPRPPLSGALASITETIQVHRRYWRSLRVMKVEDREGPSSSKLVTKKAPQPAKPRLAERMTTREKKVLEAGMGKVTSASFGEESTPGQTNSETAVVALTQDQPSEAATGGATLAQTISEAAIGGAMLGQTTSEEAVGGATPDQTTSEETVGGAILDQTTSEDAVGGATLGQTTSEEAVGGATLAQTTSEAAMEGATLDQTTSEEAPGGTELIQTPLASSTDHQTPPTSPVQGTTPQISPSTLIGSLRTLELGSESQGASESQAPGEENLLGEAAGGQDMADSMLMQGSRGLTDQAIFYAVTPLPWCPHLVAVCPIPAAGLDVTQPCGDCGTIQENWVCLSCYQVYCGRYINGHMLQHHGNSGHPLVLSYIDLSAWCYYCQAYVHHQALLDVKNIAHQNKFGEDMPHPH
# Protocol: as §1
# [3] = target: T2, HDAC8 (Homo sapiens, UniProt Q9BY41); experiment: as above; type: biochemical; settings: trypsin-coupled fluorescence assay, acetyl-Gly-Ala-(N-acetyl-Lys)-AMC substrate
# T2 sequence (Q9BY41 1-377): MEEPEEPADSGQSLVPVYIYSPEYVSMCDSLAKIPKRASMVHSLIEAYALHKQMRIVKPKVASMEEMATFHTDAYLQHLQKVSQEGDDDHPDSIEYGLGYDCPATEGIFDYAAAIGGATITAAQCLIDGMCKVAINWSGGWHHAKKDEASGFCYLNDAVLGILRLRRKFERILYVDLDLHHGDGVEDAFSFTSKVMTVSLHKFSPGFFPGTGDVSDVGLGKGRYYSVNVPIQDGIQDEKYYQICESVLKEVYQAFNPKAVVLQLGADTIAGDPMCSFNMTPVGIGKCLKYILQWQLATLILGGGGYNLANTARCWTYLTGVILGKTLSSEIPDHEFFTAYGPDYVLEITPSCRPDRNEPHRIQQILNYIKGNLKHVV
# Protocol: as §1
# [4] = test system: Jurkat cells; experiment: Cell proliferation assay, growth inhibition by Alamar Blue; type: cell-based; settings: Homo sapiens, 72 h, treated with compound for 3 days
# Protocol: Cell lines are obtained from DSMZ (Braunschweig, Germany) or ATCC (Manassas, Va.). Cells are grown in RPMI 1640 with 10% fetal bovine serum in a 5% CO2/air incubator at 37° C. Thapsigargin and BAPTA-AM are from Calbiochem (San Diego, Calif.). 3-((dimethylamino)methyl)-N-(2-(4-(hydroxycarbamoyl)phenoxy)ethyl)benzofuran-2-carboxamide is a broad-spectrum HDAC inhibitor which was synthesized as previously described. Other analogs with varying degrees of specificity towards the HDAC isoforms are synthesized as described herein.
# Tumor cell lines and human umbilical vein endothelial cells (HUVEC) are cultured for at least two doubling times, and growth is monitored at the end of compound exposure using an Alamar Blue™ (Biosource, Camarillo, Calif.) fluorometric cell proliferation assay as recommended by the manufacturer. Compounds are assayed in triplicate wells in 96-well plates. The concentration required to inhibit cell growth by 50% (GI50) and 95% confidence intervals are estimated from nonlinear regression using a 4-parameter logistic equation. The effect of HDAC8 selective inhibitor compounds on cell proliferation in Jurkat cells is measured. Apoptosis is measured by Annexin-V flow cytommetry. Growth inhibiton iss measured by Alamar Blue assay. Cells are treated with compound for 3 days.
# Sequence of HDAC1 (Q13547 whole entry): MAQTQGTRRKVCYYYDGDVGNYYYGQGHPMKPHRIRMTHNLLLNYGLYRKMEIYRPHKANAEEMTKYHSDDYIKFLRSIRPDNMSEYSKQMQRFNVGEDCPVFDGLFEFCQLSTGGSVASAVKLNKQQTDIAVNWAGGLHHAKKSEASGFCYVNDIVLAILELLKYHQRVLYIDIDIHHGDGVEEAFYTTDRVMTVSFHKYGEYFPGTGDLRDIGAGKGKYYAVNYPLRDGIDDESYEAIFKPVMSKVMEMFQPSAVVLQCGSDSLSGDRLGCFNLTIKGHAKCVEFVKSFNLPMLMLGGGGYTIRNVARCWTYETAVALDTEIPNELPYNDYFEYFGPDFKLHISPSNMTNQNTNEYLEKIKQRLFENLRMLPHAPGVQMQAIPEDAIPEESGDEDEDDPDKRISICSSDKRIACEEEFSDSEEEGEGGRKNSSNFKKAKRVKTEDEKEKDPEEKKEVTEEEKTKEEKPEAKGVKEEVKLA
SMILES,IC50 [1] [µM],IC50 [2] [µM],IC50 [3] [µM],GI50 [4] [µM]
"O=C(/C=C/c1ccccc1Oc1ccc(Cl)cc1)NO [Compound 6, (E)-3-(2-(4-chlorophenoxy)phenyl)-N-hydroxyacrylamide]",1 to 10,1 to 10,≤ 0.1,1.43
"O=C(/C=C/c1ccccc1Oc1ccccc1)NO [Compound 7, (E)-N-Hydroxy-3-(2-phenoxyphenyl)acrylamide]",1 to 10,0.1 to 1,≤ 0.1,–
"Cc1ccc(Oc2ccccc2/C=C/C(=O)NO)cc1 [Compound 8, (E)-3-(2-(p-Tolyloxy)phenyl)-N-hydroxyacrylamide]",1 to 10,0.1 to 1,≤ 0.1,6.1
"O=C(/C=C/c1ccccc1Oc1ccc(F)cc1)NO [Compound 9, (E)-3-(2-(4-Fluorophenoxy)phenyl)-N-hydroxyacrylamide]",1 to 10,1 to 10,≤ 0.1,2
"COc1ccc(Oc2ccccc2/C=C/C(=O)NO)cc1 [Compound 10, (E)-N-hydroxy-3-(2-(4-methoxyphenoxy)phenyl)acrylamide]",1 to 10,0.1 to 1,≤ 0.1,2.25
"O=C(/C=C/c1ccccc1Oc1cccc(Cl)c1)NO [Compound 11, (E)-3-(2-(3-Chlorophenoxy)phenyl)-N-hydroxyacrylamide]",1 to 10,0.1 to 1,≤ 0.1,1.98
"O=C(/C=C/c1ccccc1Oc1ccc(Cl)c(Cl)c1)NO [Compound 12, (E)-3-(2-(3,4-Dichlorophenoxy)phenyl)-N-hydroxyacrylamide]",1 to 10,1 to 10,≤ 0.1,1.8
"Cc1cccc(Oc2ccccc2/C=C/C(=O)NO)c1 [Compound 13, (E)-N-hydroxy-3-(2-(m-tolyloxy)phenyl)acrylamide]",1 to 10,1 to 10,≤ 0.1,2.5
"O=C(/C=C/c1ccccc1Oc1cccc(F)c1)NO [Compound 14, (E)-3-(2-(3-Fluorophenoxy)phenyl)-N-hydroxyacrylamide]",1 to 10,1 to 10,≤ 0.1,3.58
"COc1cccc(Oc2ccccc2/C=C/C(=O)NO)c1 [Compound 15, (E)-N-hydroxy-3-(2-(3-methoxyphenoxy)phenyl)acrylamide]",1 to 10,0.1 to 1,≤ 0.1,3.37
"O=C(/C=C/c1ccccc1Oc1cccnc1)NO [Compound 16, (E)-N-Hydroxy-3-(2-(pyridin-3-yloxy)phenyl)acrylamide]",1 to 10,1 to 10,≤ 0.1,> 20
"O=C(/C=C/c1ccccc1Oc1ccncc1)NO [Compound 17, (E)-N-Hydroxy-3-(2-(pyridin-4-yloxy)phenyl)acrylamide]",> 10,> 10,≤ 0.1,–
"O=C(/C=C/c1ccccc1OC1CCN(C(=O)c2ccccc2)CC1)NO [Compound 20, (E)-3-(2-(1-benzoylpiperidin-4-yloxy)phenyl)-N-hydroxyacrylamide]",1 to 10,1 to 10,≤ 0.1,9.7
"CC(=O)Nc1ccc(Oc2cccc(Cl)c2)c(/C=C/C(=O)NO)c1 [Compound 42, (E)-3-(5-acetamido-2-(3-chlorophenoxy)phenyl)-N-hydroxyacrylamide]",> 10,> 10,≤ 0.1,–
"O=C(/C=C/c1cc(NCc2cccnc2)ccc1Oc1ccc(F)cc1)NO [Compound 49, (E)-3-(2-(4-fluorophenoxy)-5-(pyridin-3-ylmethylamino)phenyl)-N-hydroxyacrylamide]",> 10,1 to 10,≤ 0.1,–
"O=C(/C=C/c1ccc(OCc2cccnc2)cc1Oc1cccc(Cl)c1)NO [Compound 59, (E)-3-(2-(3-chlorophenoxy)-4-(pyridin-3-ylmethoxy)phenyl)-N-hydroxyacrylamide]",1 to 10,0.1 to 1,≤ 0.1,–
"O=C(/C=C/c1ccc(OCCN2CCOCC2)cc1Oc1cccc(Cl)c1)NO [Compound 67, (E)-3-(2-(3-chlorophenoxy)-4-(2-morpholinoethoxy)phenyl)-N-hydroxyacrylamide]",1 to 10,0.1 to 1,≤ 0.1,–
"CN1CCN(CCOc2ccc(/C=C/C(=O)NO)c(Oc3cccc(Cl)c3)c2)CC1 [Compound 68, (E)-3-(2-(3-chlorophenoxy)-4-(2-(4-methylpiperazin-1-yl)ethoxy)phenyl)-N-hydroxyacrylamide]",1 to 10,0.1 to 1,≤ 0.1,–
"CN(C)CCOc1ccc(/C=C/C(=O)NO)c(Oc2cccc(Cl)c2)c1 [Compound 69, (E)-3-(2-(3-chlorophenoxy)-4-(2-(dimethylamino)ethoxy)phenyl)-N-hydroxyacrylamide]",0.1 to 1,0.1 to 1,≤ 0.1,–
"COCCOc1ccc(/C=C/C(=O)NO)c(Oc2ccc(Cl)c(Cl)c2)c1 [Compound 80, (E)-3-(2-(3,4-dichlorophenoxy)-4-(2-methoxyethoxy)phenyl)-N-hydroxyacrylamide]",> 10,1 to 10,≤ 0.1,–
